According to publication PMC8241176, “Preliminary study on fabrication, characterization and synergistic anti-lung cancer effects of self-assembled micelles of covalently conjugated celastrol–polyethylene glycol–ginsenoside Rh2” (Drug Delivery, 2017):

Test system: A549 cells
Experiment: Antiproliferative effect by MTT assay
Format: cell-based, human
Settings: 48 h, G Rh2 6.4 μg/mL
Procedure: The human NSCLC cell line, A549, was cultured in RPMI 1640 medium containing 10% FBS at 37 °C and 5% CO2 in an incubator with saturated humidity. The medium was replaced every 2 days and the cells were passaged at the split ratio of 1:8 every 5–7 days. Cells grown to the logarithmic growth phase were harvested for further experiments.
The A549 cells were seeded in a 96-well plate at 5 × 10^3 cells/well and incubated for 24 h. The medium was then discarded and each well received 100 μL of different concentrations of CG-M, CG-Mblank, celastrol + G Rh2, celastrol and G Rh2. After 48 h of incubation, 100 μL of 0.5 mg/mL MTT in phosphate-buffered saline (PBS) was added to each well, followed by 4 h of incubation in the dark. […] The plate was shaken at low speed for 3 min, and the absorbance at 570 nm was measured using a microplate reader to calculate cell viability. Cell viability (%) = Absorbance of the drug treatment group (Adrug)/Absorbance of the control group (Acontrol) × 100. The IC50 was calculated by GraphPad prism 6.0 software (GraphPad Software Inc., San Diego, CA). The combined index (CI) was calculated with the following formula: CI = IC50 of celastrol in combination group/IC50 of celastrol + IC50 of G Rh2 in combination group/IC50 of G Rh2 (Qu et al., [2017]; Wu et al., [2017]), which represents a synergistic antitumor effect if the value is less than 1.

Structure (SMILES): CC(C)=CCC[C@](C)(O)[C@H]1CC[C@]2(C)[C@@H]1[C@H](O)C[C@@H]1[C@@]3(C)CC[C@H](O[C@@H]4O[C@H](CO)[C@@H](O)[C@H](O)[C@H]4O)C(C)(C)[C@@H]3CC[C@]12C [G Rh2, ginsenoside Rh2]
- survival rate of cells: 67.5%
